The source of these data is ChEMBL document CHEMBL1201862, “PubChem BioAssay data set” (2004).

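Growth conditions: 96-well plates. Treatment: test compound, 48 hours, 5 concentrations. Analysis: linear interpolation between bracketing concentrations; unreached endpoints set to highest concentration. Here, GI50 denotes the concentration required for 50% inhibition of growth.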 Calls of active or inactive are those of the source. No stated cut-off is given here; in the data, active = GI50 up to about 1.1 µM and inactive = higher. Where only a bound is given, the exact number is not on record here.

Among the test systems are SF-268; KM-20L2; HL-60; RPMI-8226; UACC-62; HOP-62; IGROV-1; Malme-3M; HCT-15; CAKI-1; NCI-H226; A498; HCT-116; LOX IMVI; SK-MEL-28; UO-31; SK-MEL-2; OVCAR-5; K562; SW-620.
Assay in all cases: growth of human tumour cells (NCI), 48 h

`COC1C(O)CC(OC2CC(Oc3cc4cc5c(c(O)c4c(O)c3C)C(=O)[C@@H](OC3CC(OC4CC(OC6CC(C)(O)C(OC(C)=O)C(C)O6)C(O)C(C)O4)C(O)C(C)O3)[C@H]([C@H](OC)C(=O)[C@@H](O)[C@@H](C)O)C5)OC(C)C2OC(C)=O)OC1C` (some centres not stated) [CHROMOMYCIN]: the GI50 in the assay on SF-268 is 0.00357 µM (active); in the assay with KM-20L2 it was 0.00397 µM (active); in the assay on HL-60, 0.0127 µM (active); in the assay with RPMI-8226, < 0.01 µM (active); with UACC-62, 0.00295 µM (active); in the assay on HOP-62, 0.00355 µM (active). Also, the GI50 in the assay with IGROV-1 is 0.0101 µM (active); in the assay on Malme-3M it was 0.00328 µM (active); with HCT-15, 0.0138 µM; in the assay with CAKI-1 it was < 0.01 µM (active); in the assay with NCI-H226, < 0.01 µM (active); in the assay with A498, 0.0038 µM (active). Moreover, the GI50 was 0.00333 µM (active) in the assay with HCT-116; 0.00348 µM (active) with LOX IMVI; 0.00368 µM (active) in the assay with SK-MEL-28; 0.0614 µM (active) in the assay on UO-31; 0.00361 µM (active) with SK-MEL-2; < 0.01 µM (active) with OVCAR-5. Moreover, the GI50 was 0.00566 µM (active) with K562 and < 0.01 µM (active) in the assay with SW-620.

In the case of `Nc1ncc2c(n1)-c1ccccc1OC2`, the GI50 is > 100 µM (inactive) with SF-268; > 100 µM (inactive) with KM-20L2; > 100 µM (inactive) in the assay with HL-60; > 100 µM (inactive) in the assay on RPMI-8226; 55.7 µM (inactive) in the assay with UACC-62; 76 µM (inactive) in the assay with HOP-62. The GI50 in the assay with IGROV-1 was 40.4 µM (inactive); in the assay with Malme-3M it was > 100 µM (inactive); in the assay on HCT-15 it was over 100 µM; in the assay with NCI-H226, 36.6 µM (inactive); in the assay on A498, 51.2 µM (inactive); with HCT-116, > 100 µM (inactive). Further, the GI50 is > 100 µM (inactive) with LOX IMVI; > 100 µM (inactive) in the assay on SK-MEL-28; 45.2 µM (inactive) in the assay on UO-31; > 100 µM (inactive) in the assay on SK-MEL-2; > 100 µM (inactive) in the assay with OVCAR-5; > 100 µM (inactive) in the assay with K562. For the same compound, in the assay on SW-620, the GI50 is > 100 µM (inactive).

`Cc1c2c(cc3c1[nH]c1ccccc13)C(c1ccc(F)cc1)=NCC2`: the GI50 is 2.18 µM (inactive) in the assay on SF-268; 1.11 µM (active) in the assay with KM-20L2; 0.358 µM (active) in the assay with HL-60; 0.935 µM (active) with RPMI-8226; 0.935 µM (active) with UACC-62; 2.05 µM (inactive) with HOP-62. Also, the GI50 in the assay with IGROV-1 was 0.855 µM (active); in the assay on Malme-3M, 1.68 µM (inactive); in the assay with HCT-15 it was 0.904 µM; in the assay on CAKI-1, 0.796 µM (active); in the assay with NCI-H226, 1.43 µM (inactive); with A498, 1.37 µM (inactive). Also, the GI50 in the assay with HCT-116 is 0.752 µM (active); with LOX IMVI, 0.509 µM (active); in the assay with SK-MEL-28 it was 1.48 µM (inactive); in the assay on UO-31 it was 1.08 µM (active); with SK-MEL-2, 1.21 µM (inactive); in the assay with OVCAR-5, 1.74 µM (inactive). Further, the GI50 in the assay with K562 is 0.379 µM (active); in the assay with SW-620, 0.665 µM (active).

Turning to `CC1=CC2c3cccc4[nH]cc(c34)CC2N(C)C1` (configuration not stated), the GI50 is > 100 µM (inactive) with SF-268; > 76.2 µM (inactive) in the assay with KM-20L2; 31.6 µM (inactive) in the assay with HL-60; > 100 µM (inactive) in the assay on RPMI-8226; > 91.8 µM (inactive) in the assay on UACC-62; 15.8 µM (inactive) in the assay on HOP-62. Further, the GI50 with IGROV-1 is > 100 µM (inactive); in the assay on Malme-3M, 30.3 µM (inactive); with HCT-15 it was over 100 µM; in the assay on CAKI-1, 66.7 µM (inactive); with NCI-H226 it was > 100 µM (inactive); in the assay on A498, > 76.6 µM (inactive). The GI50 with HCT-116 was > 100 µM (inactive); in the assay with LOX IMVI it was 70.8 µM (inactive); in the assay with SK-MEL-28 it was > 100 µM (inactive); in the assay on UO-31 it was 11.9 µM (inactive); in the assay on SK-MEL-2 it was > 100 µM (inactive); with OVCAR-5, > 100 µM (inactive). The GI50 in the assay on K562 was 32.7 µM (inactive); in the assay with SW-620, > 100 µM (inactive).

Take `O=C(O)CCSC(=S)Nc1cccc(F)c1`: the GI50 in the assay with SF-268 is 45.6 µM (inactive); in the assay on KM-20L2, 89.1 µM (inactive); with RPMI-8226 it was 31.6 µM (inactive); in the assay on UACC-62, 13.4 µM (inactive); in the assay on HOP-62, 56.4 µM (inactive); in the assay on IGROV-1, 29.2 µM (inactive). The GI50 with Malme-3M is 48.6 µM (inactive); in the assay with HCT-15, 27 µM; in the assay with CAKI-1, 77.3 µM (inactive); with NCI-H226 it was 33.7 µM (inactive); in the assay on A498, 30.4 µM (inactive); in the assay with HCT-116, 97.3 µM (inactive). The GI50 in the assay with LOX IMVI is 13.9 µM (inactive); in the assay on SK-MEL-28, 28 µM (inactive); in the assay with UO-31 it was > 100 µM (inactive); in the assay on OVCAR-5, > 100 µM (inactive); in the assay on K562 it was 32.3 µM (inactive); in the assay with SW-620, > 100 µM (inactive).

Take `COc1cccc(N2C(=O)C3c4[nH]c5ccc(C)cc5c4C4CCC(C(C)(C)C)CC4C3C2=O)c1` (configuration not stated): the GI50 is 4.73 µM (inactive) in the assay with SF-268; 1.95 µM (inactive) with HL-60; 4.06 µM (inactive) with RPMI-8226; > 10 µM (inactive) in the assay with UACC-62; > 10 µM (inactive) in the assay with HOP-62; > 10 µM (inactive) with IGROV-1. Further, the GI50 in the assay on Malme-3M was > 10 µM (inactive); in the assay with HCT-15 it was 6.35 µM; with CAKI-1, 9.84 µM (inactive); in the assay on NCI-H226, 3.01 µM (inactive); with A498 it was > 10 µM (inactive); in the assay with HCT-116, 2.17 µM (inactive). In addition, the GI50 is 2.43 µM (inactive) with LOX IMVI; 4.61 µM (inactive) in the assay with SK-MEL-28; 2.8 µM (inactive) with UO-31; > 10 µM (inactive) in the assay with SK-MEL-2; 3.3 µM (inactive) in the assay with OVCAR-5; 2.65 µM (inactive) in the assay on K562. In addition, the GI50 with SW-620 was 3.88 µM (inactive).

Turning to `O=C(O)C1CCCCN1C(=O)c1ccccc1` (configuration not stated), the GI50 in the assay with SF-268, in the assay on KM-20L2, with HL-60, with RPMI-8226, in the assay on UACC-62 and in the assay on HOP-62 was > 100 µM (inactive) in each case. Besides, the GI50 in the assay on IGROV-1 is > 100 µM (inactive); in the assay on Malme-3M, > 100 µM (inactive); in the assay on HCT-15, over 100 µM; in the assay on A498 it was > 100 µM (inactive); with HCT-116 it was > 100 µM (inactive); with LOX IMVI, > 100 µM (inactive). Besides, the GI50 in the assay on SK-MEL-28, with UO-31, with OVCAR-5, in the assay with K562 and in the assay on SW-620 was > 100 µM (inactive) in each case.

Consider `CC(/C=N/N=C(N)N)=N\N=C(N)N`, for which the GI50 in the assay with SF-268 was 3.56 µM (inactive); with KM-20L2, 12.8 µM (inactive); in the assay with HL-60, 7.24 µM (inactive); with RPMI-8226 it was 12.1 µM (inactive); in the assay on UACC-62, 46.6 µM (inactive); in the assay on HOP-62, 6.58 µM (inactive). For the same compound, the GI50 in the assay on IGROV-1 is 279 µM (inactive); in the assay on Malme-3M it was 33.9 µM (inactive); in the assay on HCT-15, 94 µM; with NCI-H226, 38.5 µM (inactive); in the assay on A498, 253 µM (inactive); in the assay on HCT-116, 6.41 µM (inactive). For the same compound, the GI50 was 4.18 µM (inactive) with LOX IMVI; 64.6 µM (inactive) with SK-MEL-28; 9.82 µM (inactive) in the assay on UO-31; 12.8 µM (inactive) in the assay with SK-MEL-2; 8.73 µM (inactive) in the assay with K562; 7.21 µM (inactive) in the assay on SW-620.

Take `CCOC(=O)CCc1c(C)c2c(OC(C)=O)cc(OC(C)=O)cc2oc1=O`: the GI50 in the assay on SF-268 was 23.3 µM (inactive); in the assay with KM-20L2 it was > 100 µM (inactive); with HL-60 it was 40.2 µM (inactive); in the assay with HOP-62, > 100 µM (inactive); in the assay on Malme-3M it was 20.7 µM (inactive); with CAKI-1, > 100 µM (inactive). In addition, the GI50 with NCI-H226 was > 10 µM (inactive); in the assay on HCT-116, 62.1 µM (inactive); in the assay on LOX IMVI it was > 10 µM (inactive); with SK-MEL-28 it was 42 µM (inactive); with UO-31 it was 46.2 µM (inactive); with SK-MEL-2, 28.4 µM (inactive). The GI50 is > 100 µM (inactive) in the assay on OVCAR-5 and 45.7 µM (inactive) with SW-620.

In the case of `CCOC(C)OC1CC(n2cc(C)c(=O)[nH]c2=O)OC1CO` (configuration not stated), the GI50 in the assay with SF-268, with KM-20L2, in the assay on HL-60, with RPMI-8226, in the assay with HOP-62 and with IGROV-1 was > 100 µM (inactive) each time. In addition, the GI50 in the assay with Malme-3M is > 100 µM (inactive); with HCT-15, over 100 µM; with NCI-H226, > 100 µM (inactive); with A498, > 100 µM (inactive); with HCT-116 it was > 100 µM (inactive); with LOX IMVI, > 100 µM (inactive). Further, the GI50 in the assay on SK-MEL-28, in the assay with UO-31, in the assay with SK-MEL-2, in the assay on OVCAR-5, in the assay on K562 and with SW-620 was > 100 µM (inactive) in each case.

On to `CCN(CC)CCOC(=O)c1ccc(N)cc1.CCOC(=O)Nc1ccc(S(=O)(=O)OC)cc1.CCOC(=O)Nc1ccc(S(=O)(=O)OC)cc1.Nc1ccc(C(=O)O)c(O)c1`, for which the GI50 with SF-268, with KM-20L2, with HL-60, in the assay on UACC-62, with HOP-62 and with IGROV-1 was > 100 µM (inactive) in each case. Moreover, the GI50 with Malme-3M was > 100 µM (inactive); in the assay with HCT-15, over 100 µM; with CAKI-1, > 100 µM (inactive); in the assay on NCI-H226, > 100 µM (inactive); in the assay on A498, > 100 µM (inactive); in the assay on HCT-116, > 100 µM (inactive). Besides, the GI50 in the assay on LOX IMVI, with SK-MEL-28, in the assay on UO-31, in the assay on SK-MEL-2, with OVCAR-5 and with K562 was > 100 µM (inactive) throughout. In addition, the GI50 in the assay with SW-620 was > 100 µM (inactive).
